Laboratory results: patent US10611730B2, “Benzimidazolone and benzothiazolone compounds and their use as AMPA receptor modulators” (Janssen Pharmaceutica NV, priority 2015, dated 2020)

How the values were obtained:
[1] = target: TARP γ8 dependent AMPA receptor (GluA1o-g8 fusion channel) (Homo sapiens (Human), UniProt P42261+Q8WXS5); assay: Calcium flux assay (FLIPR), HEK293 cells expressing GRIA1o-CACNG8 fusion; format: cell-based; conditions: inhibition of calcium flux after 15 μM glutamate; for IC50: read-out: GluR1-γ8 pIC50 (converted)
Outline: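 Stable HEK293 clone expressing GluA1o-γ8 fusion (1:1 stoichiometry), loaded with Calcium-5/6 dye plus test compound; glutamate-evoked fluorescence normalized to control wells. Concentration-response fitted to four-parameter logistic, midpoint taken as inhibitory potency.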

[2] = test system: endogenous γ 8-containing AMPA receptor currents; assay: Whole-cell electrophysiology on acutely-dissociated mouse hippocampal neurons; format: cell-based; conditions: 10 mM glutamate, 500 ms, held at −60 mV
Procedure: The effects of selected compounds upon endogenous γ 8-containing AMPA receptor currents was evaluated using whole-cell electrophysiology on acutely-dissociated mouse hippocampal neurons. Hippocampus was chosen for this assay, since CACNG8 (the protein encoded by this gene is a type I transmembrane AMPA receptor regulatory protein i.e., TARP) is preferentially enriched in this brain region (Tomita et al. (2003). “Functional studies and distribution define a family of transmembrane AMPA receptor regulatory proteins.” J Cell Biol 161(4): 805-816.2003).
Hippocampi were dissected from C57black6 mice at 4-12 weeks postnatal, following the protocol described by Brewer (Brewer, G. J. (1997). “Isolation and culture of adult rat hippocampal neurons.” Journal of Neuroscience Methods 71(2): 143-155). The following is a brief summary of the procedure. Mice were asphyxiated with CO2 then decapitated. The brain was rapidly removed, then placed into ice-cold HABG medium. The recipe for HABG medium was: HibernateA supplemented with 2% B27 and 0.5 mM Glutamax (all reagents from Life Technologies). Hippocampi were micro-dissected from the brains, then washed with HABG without calcium (Hibernate A minus Calcium, BrainBits; 2% B27, Life Technologies; 0.5 mM glutamax, Life Technologies).
The hippocampi were then transferred to HABG without calcium, supplemented with 2 mg/mL papain (Worthington Biochemical). They were incubated at 30° C. on a roller for 40 min, then gently triturated with a fire-polished glass pipette. The supernatant containing dissociated neurons was collected, then centrifuged for 2 min at 200 g. The cell pellet was collected, and then resuspended in 8 mL of HABG. Live cells were counted, then plated onto 12 mm glass coverslips in HABG (2 mL) in 24-well plates at a density of 50-100 cells per coverslip. These cells were maintained at room temperature until use.
Whole-cell electrophysiology was performed using 1.5 mm diameter glass capillary tubes (World Precision Instruments TW150-4), pulled to a fine tip with a Sutter P-97 micropipette puller. The intracellular buffer was 90 mM KF, 30 mM KCl, 10 mM HEPES, and 5 mM EGTA, pH 7.4, 290 mOs. The extracellular buffer was 135 mM NaCl, 4 mM KCl, 2 mM CaCl2), 1 mM MgCl2, 5 mM glucose, 10 mM HEPES, pH 7.4, 300 mOs. The open-tip resistances of the micropipettes using these solutions were 2-4MΩ. Whole-cell recordings of neuron cell bodies were performed in voltage-clamp mode using an Axon Axopatch 200B amplifier. Whole-cell current was measured holding the interior of the cell at −60 mV, using a 5 kHz lowpass filter. The cells were continuously perfused through 7 mm square glass barrels using a solenoid-controlled solution switching device (Warner Instruments, PF-77B). The peak current in response to a 500 ms exposure to 10 mM glutamate every 5 seconds was measured, before and after exposure to test compound.
For analysis, the mean peak current of 5 traces in the presence of test compound was divided by the mean peak current of 5 traces prior to the addition of test compound. Compounds were tested at concentrations at least ten times higher than their estimated potency in the calcium flux assay, in order to ensure near-saturating occupancy of the receptor.
The table below summarizes the results of this electrophysiological assay. Peak current (% control) is mean of the peak response to glutamate in the presence of the indicated compound, normalized to the peak response to glutamate in the absence of test compound. N is the number of neurons tested. The compounds were tested at concentrations noted below in Table 5. At the said tested concentrations, the peak response to glutamate was reduced compared to controls for all tested compounds.

Sequence of TARP γ8 dependent AMPA receptor (GluA1o-g8 fusion channel) (P42261 other isoform, or with tags, fused parts or gaps): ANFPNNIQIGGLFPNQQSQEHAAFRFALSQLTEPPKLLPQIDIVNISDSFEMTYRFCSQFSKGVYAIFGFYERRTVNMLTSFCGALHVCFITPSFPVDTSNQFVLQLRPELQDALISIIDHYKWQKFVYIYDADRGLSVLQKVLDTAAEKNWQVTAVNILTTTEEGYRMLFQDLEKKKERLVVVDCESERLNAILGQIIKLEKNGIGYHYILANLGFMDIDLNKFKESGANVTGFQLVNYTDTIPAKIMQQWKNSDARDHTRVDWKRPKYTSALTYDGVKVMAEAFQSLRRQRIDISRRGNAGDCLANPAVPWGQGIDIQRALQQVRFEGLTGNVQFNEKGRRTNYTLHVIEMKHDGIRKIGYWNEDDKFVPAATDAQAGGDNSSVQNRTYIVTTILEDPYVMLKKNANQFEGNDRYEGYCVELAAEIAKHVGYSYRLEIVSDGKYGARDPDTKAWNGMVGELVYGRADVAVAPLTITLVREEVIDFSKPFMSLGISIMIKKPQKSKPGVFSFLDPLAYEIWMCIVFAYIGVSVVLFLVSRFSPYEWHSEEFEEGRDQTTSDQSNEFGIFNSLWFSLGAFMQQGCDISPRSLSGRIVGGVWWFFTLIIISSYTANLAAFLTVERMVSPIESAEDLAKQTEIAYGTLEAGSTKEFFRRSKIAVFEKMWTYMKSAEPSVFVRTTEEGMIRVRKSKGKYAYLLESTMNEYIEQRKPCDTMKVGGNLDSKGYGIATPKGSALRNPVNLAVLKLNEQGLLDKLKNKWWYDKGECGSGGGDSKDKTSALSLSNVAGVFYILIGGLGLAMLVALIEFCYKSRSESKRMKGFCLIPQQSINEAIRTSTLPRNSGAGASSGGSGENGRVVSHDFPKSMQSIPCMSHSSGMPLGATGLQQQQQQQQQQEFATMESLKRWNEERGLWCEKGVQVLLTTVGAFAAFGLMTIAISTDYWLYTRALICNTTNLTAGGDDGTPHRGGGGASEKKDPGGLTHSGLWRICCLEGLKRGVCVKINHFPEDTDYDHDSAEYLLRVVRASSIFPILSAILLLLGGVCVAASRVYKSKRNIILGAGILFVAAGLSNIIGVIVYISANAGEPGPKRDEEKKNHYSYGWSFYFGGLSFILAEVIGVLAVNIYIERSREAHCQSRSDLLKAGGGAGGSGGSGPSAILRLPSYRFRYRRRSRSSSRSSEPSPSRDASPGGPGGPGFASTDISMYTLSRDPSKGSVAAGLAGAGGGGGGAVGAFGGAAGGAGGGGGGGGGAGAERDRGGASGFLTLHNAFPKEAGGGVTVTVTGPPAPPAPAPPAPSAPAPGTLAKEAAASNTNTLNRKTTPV

Row | SMILES | GluR1-γ8 pIC50 [1] | peak current (% control) ([2]; 10 μM compound) | IC50 [1] | peak current (% control) ([2]; 1 μM compound)
1 | Cc1cccc(C)c1-c1ccc2[nH]c(=O)[nH]c2c1 [Example 2, 5-(2,6-Dimethylphenyl)-1,3-dihydrobenzimidazol-2-one] | 6.8 | 70% |  | 
2 | COc1cccc(OCC(C)C)c1-c1ccc2[nH]c(=O)[nH]c2c1 [Example 14, 5-(2-Isobutoxy-6-methoxy-phenyl)-1,3-dihydrobenzimidazol-2-one] |  |  | 0.0316 µM | 69%
3 | O=c1[nH]c2ccc(-c3c(Cl)cccc3OC(F)(F)F)cc2[nH]1 [Example 31, 5-[2-Chloro-6-(trifluoromethoxy)phenyl]-1,3-dihydrobenzimidazol-2-one] |  |  |  | 61%
4 | Cc1cccc(Cl)c1-c1ccc2[nH]c(=O)[nH]c2c1 [Example 36, 5-(2-Chloro-6-methyl-phenyl)-1,3-dihydrobenzimidazol-2-one] |  |  | 0.0631 µM | 72%
5 | O=c1[nH]c2ccc(-c3c(Cl)ccc(Cl)c3Cl)cc2[nH]1 [Example 66, 5-(2,3,6-Trichlorophenyl)-1,3-dihydrobenzimidazol-2-one] |  |  | 0.01 µM | 86%
6 | N#CCc1cccc(OC(F)(F)F)c1-c1ccc2[nH]c(=O)[nH]c2c1 [Example 123] |  |  | 0.0158 µM | 59%
7 | N#CCc1cccc(Cl)c1-c1ccc2[nH]c(=O)[nH]c2c1 [Example 124, 2-[3-Chloro-2-(2-oxo-1,3-dihydrobenzimidazol-5-yl)phenyl]acetonitrile] |  |  | 0.0126 µM | 63%
8 | O=c1[nH]c2ccc(-c3c(Cl)cccc3C3CC3)cc2[nH]1 [Example 160, 5-(2-Chloro-6-cyclopropyl-phenyl)-1,3-dihydrobenzimidazol-2-one] | 8.2 |  |  | 70%
